In US9650395B2, “Antibacterial compounds and methods for use” (PTC Therapeutics, Inc., priority 2011, dated 2017):
Counter-ions that a name gives are not always drawn. Like-named read-outs stand apart in the source and are kept apart here.

Columns and labels:
[1] = system: Pseudomonas aeruginosa (P. aeruginosa) 27853; test: Antibacterial activity, MIC, P. aeruginosa 27853; assay type: cell-based; conditions: P. aeruginosa 27853; for MIC: Pseudomonas aeruginosa, read-out: MIC 27853
From the text: (§1) The antibacterial activity from a microbroth dilution method may be presented as the minimum inhibitory concentration (MIC in […]). The MIC value is the lowest concentration of a drug which prevents macroscopically visible bacterial growth under test conditions.
Antibacterial activity of test compounds against the Gram-negative bacterium Pseudomonas aeruginosa (P. aeruginosa) 27853 is shown in Table 5.

[2] = system: quinolone resistant E. coli LZ3111; test: Antibacterial activity, MIC, quinolone resistant E. coli LZ3111; assay type: cell-based, Escherichia coli; conditions: for MIC: Escherichia coli, read-out: MIC, LZ3111
From the text: as §1
Mutations in these regions are known to confer a high level resistance to the quinolone class of antibiotics.

[3] = system: Klebsiella pneumoniae (K. pneumoniae) 35657; test: Antibacterial activity, MIC, K. pneumoniae 35657; assay type: cell-based; conditions: for MIC: Klebsiella pneumoniae
[4] = system: E. coli ELZ4251 (MDR clinical isolate); test: Antibacterial activity, MIC, MDR E. coli ELZ4251; assay type: cell-based, Escherichia coli; conditions: E. coli ELZ4251, MDR clinical isolate; for MIC: Escherichia coli, read-out: MIC ELZ4251
[5] = system: control Gram-negative E. coli 25922 strain; test: Antibacterial activity, microbroth dilution MIC, E. coli 25922; assay type: cell-based, Escherichia coli; conditions: E. coli 25922, microbroth dilution; for MIC: Escherichia coli, read-out: MIC, 25922
[6] = system: E. coli ELZ4000 (MDR clinical isolate); test: Antibacterial activity, MIC, MDR E. coli ELZ4000; assay type: cell-based, Escherichia coli; conditions: E. coli ELZ4000, MDR clinical isolate; for MIC: Escherichia coli, read-out: MIC ELZ4000
[7] = system: super sensitive Gram-negative Escherichia coli (E. coli) BAS849; test: Antibacterial activity, microbroth dilution MIC, E. coli BAS849; assay type: cell-based; conditions: for MIC: Escherichia coli, read-out: MIC, BAS849
[8] = system: Neisseria meningitidis (N. meningitidis) 13090; test: Antibacterial activity, MIC, N. meningitidis 13090; assay type: cell-based; conditions: N. meningitidis 13090; for MIC: Neisseria meningitidis, read-out: MIC 13090
[9] = system: resistant K. pneumoniae MXX1232 (MDR clinical isolate); test: Antibacterial activity, MIC, resistant K. pneumoniae MXX1232; assay type: cell-based, Klebsiella pneumoniae; conditions: resistant K. pneumoniae MMX1232, MDR clinical isolate; for MIC: Klebsiella pneumoniae, read-out: MIC MMX1232
[10] = system: resistant A. baumannii MXX2240 (MDR clinical isolate); test: Antibacterial activity, MIC, resistant A. baumannii MXX2240; assay type: cell-based, Acinetobacter baumannii; conditions: resistant A. baumannii MMX2240, MDR clinical isolate; for MIC: Acinetobacter baumannii, read-out: MIC MMX2240
[11] = system: Moraxella catarrhalis (M. catarrhalis) 25238; test: Antibacterial activity, MIC, M. catarrhalis 25238; assay type: cell-based; conditions: M. catarrhalis 25238; for MIC: Moraxella catarrhalis, read-out: MIC 25238
[12] = system: Haemophilus influenzae (H. influenzae) 49247; test: Antibacterial activity, MIC, H. influenzae 49247; assay type: cell-based; conditions: H. influenzae 49247; for MIC: Haemophilus influenzae, read-out: MIC 49247
How it was run: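 A microbroth dilution method gave the minimum inhibitory concentration for each compound against H. influenzae 49247, a Gram-negative bacterium. MIC means the smallest concentration of drug at which no macroscopically visible bacterial growth appears under the conditions of the test.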

[13] = system: Acinetobacter baumannii (A. baumannii) BAA747; test: Antibacterial activity, MIC, A. baumannii BAA747; assay type: cell-based; conditions: A. baumannii BAA747; for MIC: Acinetobacter baumannii, read-out: MIC BAA747
[14] = system: Gram-positive Staphylococcus aureus (S. aureus) 29213; test: Antibacterial activity, microbroth dilution MIC, S. aureus 29213; assay type: cell-based; conditions: S. aureus 29213, microbroth dilution; for MIC: Staphylococcus aureus, read-out: MIC, 29213
[15] = E. coli BAS849, microbroth dilution

Row | SMILES | MIC [1] | MIC [2] | MIC [3] | MIC [4] | MIC [5] | MIC [6] | MIC [7, 15] | MIC [8] | MIC [9] | MIC [10] | MIC [11] | MIC [12] | MIC [13] | MIC [14] | also measured
1 | Cc1c(-c2ccc(N3C[C@@H]4[C@@H](N)[C@@H]4C3)cc2)[nH]c(=O)c(C(=O)O)c1O.Cl [Cpd 259, 6-{4-[(1R,5S,6s)-6-amino-3-azabicyclo[3.1.0]hex-3-yl]phenyl}-4-hydroxy-5-methyl-2-oxo-1,2-dihydropyridine-3-carboxylic acid hydrochloride] |  |  |  |  |  |  |  |  |  |  |  |  |  |  | MIC 27853 [1]: * (an MIC value between >12.5 μg/mL and ≦150 μg/mL is indicated by a single star (*)); MIC, LZ3111 ([2]; quinolone resistant E. coli LZ3111): *** (an MIC value between >1.0 μg/mL and ≦3.5 μg/mL is indicated by three stars (***)); MIC 35657 [3]: *** (an MIC value between >1.0 μg/mL and ≦3.5 μg/mL is indicated by three stars (***)); MIC ELZ4251 [4]: ** (an MIC value between >3.5 μg/mL and ≦12.5 μg/mL is indicated by two stars (**)); MIC, 25922 [5]: *** (an MIC value between >1.0 μg/mL and ≦3.5 μg/mL is indicated by three stars (***)); MIC ELZ4000 [6]: ** (an MIC value between >3.5 μg/mL and ≦12.5 μg/mL is indicated by two stars (**)); MIC, BAS849 [7, 15]: **** (an MIC value of ≦1.0 μg/mL is indicated by four stars (****)); MIC 13090 [8]: **** (an MIC value of ≦1.0 μg/mL is indicated by four stars (****)); MIC MMX1232 [9]: * (an MIC value between >12.5 μg/mL and ≦150 μg/mL is indicated by a single star (*)); MIC MMX2240 [10]: * (an MIC value between >12.5 μg/mL and ≦150 μg/mL is indicated by a single star (*)); MIC 25238 [11]: ** (an MIC value between >3.5 μg/mL and ≦12.5 μg/mL is indicated by two stars (**)); MIC 49247 [12]: *** (an MIC value between >1.0 μg/mL and ≦3.5 μg/mL is indicated by three stars (***)); MIC BAA747 [13]: ** (an MIC value between >3.5 μg/mL and ≦12.5 μg/mL is indicated by two stars (**)); MIC, 29213 [14]: * (an MIC value between >12.5 μg/mL and ≦150 μg/mL is indicated by a single star (*))
2 | CCc1c(-c2ccc(N3C[C@H]4CCC[C@@H](N(C)C)[C@H]4C3)cc2)[nH]c(=O)c(C(=O)O)c1O.Cl [Cpd 261, 6-{4-[(3aR,4R,7aS)-4-(dimethylamino)octahydro-2H-isoindol-2-yl]phenyl}-5-ethyl-4-hydroxy-2-oxo-1,2-dihydropyridine-3-carboxylic acid hydrochloride] | 12.5 to 150 µg/mL | 1 to 3.5 µg/mL | 12.5 to 150 µg/mL | 3.5 to 12.5 µg/mL | 3.5 to 12.5 µg/mL | 12.5 to 150 µg/mL | < 1 µg/mL | < 1 µg/mL | 12.5 to 150 µg/mL | 12.5 to 150 µg/mL | 3.5 to 12.5 µg/mL | 12.5 to 150 µg/mL | 12.5 to 150 µg/mL | 3.5 to 12.5 µg/mL | 
3 | CCc1c(-c2ccc(N3C[C@H]4CCC[C@@H](N)[C@H]4C3)cc2)[nH]c(=O)c(C(=O)O)c1O.O=C(O)C(F)(F)F [Cpd 262, 6-{4-[(3aR,4R,7aS)-4-aminooctahydro-2H-isoindol-2-yl]phenyl}-5-ethyl-4-hydroxy-2-oxo-1,2-dihydropyridine-3-carboxylic acid trifluoroacetate] | 12.5 to 150 µg/mL | < 1 µg/mL | 1 to 3.5 µg/mL | 1 to 3.5 µg/mL | 1 to 3.5 µg/mL | 1 to 3.5 µg/mL |  | 1 to 3.5 µg/mL | 12.5 to 150 µg/mL | 1 to 3.5 µg/mL | 3.5 to 12.5 µg/mL | 3.5 to 12.5 µg/mL | 3.5 to 12.5 µg/mL | 3.5 to 12.5 µg/mL | MIC [7]: < 1 µg/mL
4 | CCc1c(-c2ccc(N3C[C@H]4CC[C@@H](N(C)C)[C@H]4C3)cc2)[nH]c(=O)c(C(=O)O)c1O.Cl [Cpd 263, 6-{4-[(3aR,4R,6aS)-4-(dimethylamino)hexahydrocyclopenta[c]pyrrol-2(1H)-yl]phenyl}-5-ethyl-4-hydroxy-2-oxo-1,2-dihydropyridine-3-carboxylic acid hydrochloride] | 12.5 to 150 µg/mL | 3.5 to 12.5 µg/mL | 3.5 to 12.5 µg/mL | 12.5 to 150 µg/mL | 1 to 3.5 µg/mL | 12.5 to 150 µg/mL | < 1 µg/mL | 1 to 3.5 µg/mL | 12.5 to 150 µg/mL | 12.5 to 150 µg/mL | 1 to 3.5 µg/mL | 3.5 to 12.5 µg/mL | 3.5 to 12.5 µg/mL | 12.5 to 150 µg/mL | 
5 | CCc1c(-c2ccc(N3C[C@H]4CC[C@@H](N)[C@H]4C3)cc2)[nH]c(=O)c(C(=O)O)c1O.Cl [Cpd 264, 6-{4-[(3aR,4R,6aS)-4-aminohexahydrocyclopenta[c]pyrrol-2(1H)-yl]phenyl}-5-ethyl-4-hydroxy-2-oxo-1,2-dihydropyridine-3-carboxylic acid hydrochloride] | 12.5 to 150 µg/mL | 1 to 3.5 µg/mL | 3.5 to 12.5 µg/mL | 3.5 to 12.5 µg/mL | 1 to 3.5 µg/mL | 12.5 to 150 µg/mL | < 1 µg/mL | < 1 µg/mL | 12.5 to 150 µg/mL | 12.5 to 150 µg/mL | 1 to 3.5 µg/mL | 3.5 to 12.5 µg/mL | 12.5 to 150 µg/mL | 3.5 to 12.5 µg/mL | 
6 | CCc1c(-c2ccc(N3C[C@H]4CC[C@H](N)[C@H]4C3)cc2)[nH]c(=O)c(C(=O)O)c1O.O=C(O)C(F)(F)F [Cpd 265, 6-{4-[(3aR,4S,6aS)-4-aminohexahydrocyclopenta[c]pyrrol-2(1H)-yl]phenyl}-5-ethyl-4-hydroxy-2-oxo-1,2-dihydropyridine-3-carboxylic acid trifluoroacetate] | 12.5 to 150 µg/mL | 3.5 to 12.5 µg/mL | 3.5 to 12.5 µg/mL | 3.5 to 12.5 µg/mL | 3.5 to 12.5 µg/mL | 12.5 to 150 µg/mL |  | 1 to 3.5 µg/mL | 12.5 to 150 µg/mL | 12.5 to 150 µg/mL | 3.5 to 12.5 µg/mL | 12.5 to 150 µg/mL | 12.5 to 150 µg/mL | 12.5 to 150 µg/mL | MIC [7]: 1 to 3.5 µg/mL
7 | CCc1c(-c2ccc(N3C[C@H]4CCC[C@H](NC)[C@H]4C3)cc2)[nH]c(=O)c(C(=O)O)c1O.Cl [Cpd 268, 5-ethyl-4-hydroxy-6-{4-[(3aR,4S,7aS)-4-(methylamino)octahydro-2H-isoindol-2-yl]phenyl}-2-oxo-1,2-dihydropyridine-3-carboxylic acid hydrochloride] | 12.5 to 150 µg/mL | 1 to 3.5 µg/mL | 12.5 to 150 µg/mL | 3.5 to 12.5 µg/mL | 3.5 to 12.5 µg/mL | 12.5 to 150 µg/mL | 1 to 3.5 µg/mL | 3.5 to 12.5 µg/mL | 12.5 to 150 µg/mL | 12.5 to 150 µg/mL | 3.5 to 12.5 µg/mL | 12.5 to 150 µg/mL | 12.5 to 150 µg/mL | 3.5 to 12.5 µg/mL | 
8 | CCc1c(-c2ccc(N3C[C@@H]4[C@H](C3)[C@H]4NC)cc2)[nH]c(=O)c(C(=O)O)c1O [Cpd 270, 5-ethyl-4-hydroxy-6-{4-[(1R,5S,6s)-6-(methylamino)-3-azabicyclo[3.1.0]hex-3-yl]phenyl}-2-oxo-1,2-dihydropyridine-3-carboxylic acid hydrochloride] | 1 to 3.5 µg/mL | 1 to 3.5 µg/mL | < 1 µg/mL | 3.5 to 12.5 µg/mL | < 1 µg/mL | 12.5 to 150 µg/mL | < 1 µg/mL | < 1 µg/mL | 12.5 to 150 µg/mL | 12.5 to 150 µg/mL | < 1 µg/mL | < 1 µg/mL | < 1 µg/mL | 3.5 to 12.5 µg/mL | 
9 | CCc1c(-c2ccc(N3CC4CCCNC4C3)cc2)[nH]c(=O)c(C(=O)O)c1O.Cl (stereo not drawn) [Cpd 272, 5-ethyl-4-hydroxy-6-[4-(octahydro-6H-pyrrolo[3,4-b]pyridin-6-yl)phenyl]-2-oxo-1,2-dihydropyridine-3-carboxylic acid hydrochloride] | 3.5 to 12.5 µg/mL | < 1 µg/mL | < 1 µg/mL | 1 to 3.5 µg/mL | < 1 µg/mL | 3.5 to 12.5 µg/mL | < 1 µg/mL | < 1 µg/mL | 12.5 to 150 µg/mL | 3.5 to 12.5 µg/mL | < 1 µg/mL | < 1 µg/mL | 1 to 3.5 µg/mL | 3.5 to 12.5 µg/mL | 
